From paper PMC4363128 (Neuroscience, 2013)

Key:
[1] = molecular target: T1, Y1 receptor (Mus musculus, UniProt Q04573); type: biochemical
T1 sequence (Q04573 1-382): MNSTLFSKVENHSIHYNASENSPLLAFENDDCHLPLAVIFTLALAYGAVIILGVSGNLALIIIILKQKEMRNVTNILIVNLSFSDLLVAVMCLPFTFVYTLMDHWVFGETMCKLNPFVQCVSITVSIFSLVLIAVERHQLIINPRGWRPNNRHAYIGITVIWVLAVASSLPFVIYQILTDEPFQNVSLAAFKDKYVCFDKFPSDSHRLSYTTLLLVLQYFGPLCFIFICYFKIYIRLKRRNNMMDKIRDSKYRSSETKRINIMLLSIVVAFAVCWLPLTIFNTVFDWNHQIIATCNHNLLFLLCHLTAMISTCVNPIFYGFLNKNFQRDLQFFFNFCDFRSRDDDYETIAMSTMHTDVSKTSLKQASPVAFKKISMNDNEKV

[2] = tested on: Y1 receptors; NK1R internalization in lamina I neurons; experiment: NK1R internalization evoked by dorsal root stimulation in spinal cord slices; type: cell-based, rat; settings: BIBO3304 100 nM with 100 nM [Leu^31,Pro^34]NPY
[3] = tested on: NK1R internalization in dorsal horn lamina I neurons; experiment: NK1R internalization evoked by non-noxious stimulus; type: in vivo, rat; settings: intrathecal NPY, carrageenan-inflamed paw; printed 'by nearly 50%'
[4] = tested on: NK1R internalization in dorsal horn lamina I neurons; type: in vivo, rat; settings: intrathecal NPY one hour before hind paw clamp

Compound	IC50 [1] [nM]	effect on inhibition of NK1R internalization produced by Y1 agonist [2]	inhibition of brush-evoked NK1R internalization [3] [%]	inhibition of evoked NK1R internalization [4] [%]
NC(=O)NCc1ccc(CNC(=O)[C@@H](CCCN=C(N)N)NC(=O)C(c2ccccc2)c2ccccc2)cc1 [BIBO3304]	7.85	completely reversed	–	–
Neuropeptide Y [NPY]	–	–	~50	50
